According to ChEMBL document CHEMBL6083188, “Recent contributions of pyridazine as a privileged scaffold of anticancer agents in medicinal chemistry: An updated review” (Bioorg Med Chem, 2024):
≈ marks a conversion by molar mass, not a printed value. Values belong to the compound of their own block, whether it stands above or below them.

How the values were obtained:
MCF7 [1] = experiment: Cytotoxicity against human MCF7 cells assessed as reduction in cell growth incubated for 5 days by MTT assay; type: functional, cell-based; details: MCF7, 120 h
HeLa = experiment: Cytotoxicity against human HeLa cells assessed as reduction in cell growth incubated for 5 days by MTT assay; type: functional, cell-based; details: 120 h
A549 = experiment: Cytotoxicity against human A549 cells assessed as reduction in cell growth incubated for 5 days by MTT assay; type: functional, cell-based; details: A549, 120 h
[2] = biological target: Hepatocyte growth factor receptor (Homo sapiens, UniProt P08581); experiment: Inhibition of c-Met (unknown origin)
MDA-MB-231 = experiment: cells; details: Homo sapiens
Description: Antiproliferative activity against human MDA-MB-231 cells assessed as reduction in cell viability

T47D = experiment: cells; details: Homo sapiens
Description: Antiproliferative activity against human T47D cells assessed as reduction in cell viability

MCF7 [3] = experiment: Cytotoxicity against human MCF7 cells assessed as reduction in cell viability measured for 48 hrs by MTT assay; type: functional, cell-based; details: MCF7, 48 h
HepG2 = experiment: Cytotoxicity against human HepG2 cells assessed as reduction in cell viability measured for 48 hrs by MTT assay; type: functional, cell-based; details: HepG2, 48 h
HCT-116 [4] = experiment: Cytotoxicity against human HCT-116 cells assessed as reduction in cell viability measured for 48 hrs by MTT assay; type: functional, cell-based; details: HCT-116, 48 h
PC-3 [5] = experiment: Cytotoxicity against human PC-3 cells assessed as reduction in cell viability measured for 48 hrs by MTT assay; type: functional, cell-based; details: PC-3, 48 h
[6] = biological target: Epidermal growth factor receptor (Homo sapiens, UniProt P00533); experiment: Inhibition of EGFR (unknown origin) extracted from insect cells by ELISA method; type: cell-free, Insect cell
HCT-116 [7] = experiment: Cytotoxicity against human HCT-116 cells assessed as reduction in cell viability incubated for 72 hrs by MTT assay; type: functional, cell-based; details: HCT-116, 72 h
[8] = Antiproliferative activity against mouse Ba/F3 EML4-ALK cells assessed as inhibition of cell growth; type: functional, cell-based
[9] = Antiproliferative activity against mouse Ba/F3 EML4-ALK-G1202R-L1196M cells assessed as inhibition of cell growth; type: functional, cell-based
PC-3 [10] = experiment: cells; details: Homo sapiens, PC-3, 72 h
Description: Cytotoxicity against human PC-3 cells assessed as inhibition of cell growth incubated for 72 hrs by MTT assay

MGC-803 = experiment: Antitumor activity against human MGC-803 cells xenografted in nude mouse assessed as tumor inhibition at 20 mg/kg, ip administered once every two days for 21 days relative to control; type: functional; parameters: scale not given: the % may be the effect or the level left; details: time 21 day
[11] = biological target: Phosphatidylinositol 4,5-bisphosphate 3-kinase catalytic subunit alpha isoform (Homo sapiens, UniProt P42336); experiment: Inhibition of PI3Kalpha (unknown origin)
[12] = biological target: Phosphatidylinositol 4,5-bisphosphate 3-kinase catalytic subunit beta isoform (Homo sapiens, UniProt P42338); experiment: Inhibition of PI3Kbeta (unknown origin)
[13] = biological target: T1, Phosphatidylinositol 4,5-bisphosphate 3-kinase catalytic subunit delta isoform (Homo sapiens, UniProt O00329); experiment: Inhibition of PI3Kdelta (unknown origin)
T1 sequence (O00329 whole entry): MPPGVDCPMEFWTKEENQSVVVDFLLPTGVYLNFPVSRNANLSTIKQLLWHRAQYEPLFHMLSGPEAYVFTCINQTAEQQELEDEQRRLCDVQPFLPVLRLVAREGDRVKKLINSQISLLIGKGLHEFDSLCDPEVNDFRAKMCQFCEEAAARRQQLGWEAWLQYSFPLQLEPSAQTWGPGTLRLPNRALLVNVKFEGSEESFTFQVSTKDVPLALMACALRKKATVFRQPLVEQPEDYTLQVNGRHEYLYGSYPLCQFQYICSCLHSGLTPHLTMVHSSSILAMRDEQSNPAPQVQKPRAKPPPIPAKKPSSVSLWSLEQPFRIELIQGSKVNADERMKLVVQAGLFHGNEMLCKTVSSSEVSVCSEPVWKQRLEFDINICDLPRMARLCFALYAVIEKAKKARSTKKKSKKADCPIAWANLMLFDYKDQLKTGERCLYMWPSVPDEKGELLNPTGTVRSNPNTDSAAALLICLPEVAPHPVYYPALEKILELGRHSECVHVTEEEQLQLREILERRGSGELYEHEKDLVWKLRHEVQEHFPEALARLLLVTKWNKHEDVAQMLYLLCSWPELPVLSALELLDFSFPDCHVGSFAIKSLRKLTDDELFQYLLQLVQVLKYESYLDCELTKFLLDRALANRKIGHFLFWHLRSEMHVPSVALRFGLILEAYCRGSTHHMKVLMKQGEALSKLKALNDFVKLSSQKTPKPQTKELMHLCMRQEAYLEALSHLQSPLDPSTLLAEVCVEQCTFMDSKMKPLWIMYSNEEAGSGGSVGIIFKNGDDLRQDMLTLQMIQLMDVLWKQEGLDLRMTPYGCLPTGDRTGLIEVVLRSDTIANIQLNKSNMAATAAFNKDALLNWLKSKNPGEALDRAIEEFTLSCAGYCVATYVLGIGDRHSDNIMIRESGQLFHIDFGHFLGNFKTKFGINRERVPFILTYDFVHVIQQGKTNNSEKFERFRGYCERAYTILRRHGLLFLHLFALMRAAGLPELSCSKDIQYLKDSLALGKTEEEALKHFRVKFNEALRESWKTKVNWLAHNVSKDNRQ

[14] = biological target: Phosphatidylinositol 4,5-bisphosphate 3-kinase catalytic subunit gamma isoform (Homo sapiens, UniProt P48736); experiment: Inhibition of PI3Kgamma (unknown origin)
SNB-75 = experiment: Antiproliferative activity against human SNB-75 cells assessed as reduction in cell growth incubated for 48 hrs by SRB assay; type: functional, cell-based; details: SNB-75, 48 h
Aurora kinase B = Aurora kinase B (Homo sapiens, UniProt Q96GD4); experiment: Inhibition of Aurora B (unknown origin)
Aurora kinase B, sequence (Q96GD4 whole entry): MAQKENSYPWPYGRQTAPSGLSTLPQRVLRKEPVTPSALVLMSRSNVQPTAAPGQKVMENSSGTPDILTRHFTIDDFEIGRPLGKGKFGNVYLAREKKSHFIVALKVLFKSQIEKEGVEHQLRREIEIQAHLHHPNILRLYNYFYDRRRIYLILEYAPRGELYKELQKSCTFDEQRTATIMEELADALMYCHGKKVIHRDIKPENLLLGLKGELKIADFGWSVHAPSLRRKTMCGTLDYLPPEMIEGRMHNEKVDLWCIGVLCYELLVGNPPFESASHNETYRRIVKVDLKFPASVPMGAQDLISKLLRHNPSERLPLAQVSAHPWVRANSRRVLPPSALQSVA

Epidermal growth factor receptor, sequence (P00533 whole entry): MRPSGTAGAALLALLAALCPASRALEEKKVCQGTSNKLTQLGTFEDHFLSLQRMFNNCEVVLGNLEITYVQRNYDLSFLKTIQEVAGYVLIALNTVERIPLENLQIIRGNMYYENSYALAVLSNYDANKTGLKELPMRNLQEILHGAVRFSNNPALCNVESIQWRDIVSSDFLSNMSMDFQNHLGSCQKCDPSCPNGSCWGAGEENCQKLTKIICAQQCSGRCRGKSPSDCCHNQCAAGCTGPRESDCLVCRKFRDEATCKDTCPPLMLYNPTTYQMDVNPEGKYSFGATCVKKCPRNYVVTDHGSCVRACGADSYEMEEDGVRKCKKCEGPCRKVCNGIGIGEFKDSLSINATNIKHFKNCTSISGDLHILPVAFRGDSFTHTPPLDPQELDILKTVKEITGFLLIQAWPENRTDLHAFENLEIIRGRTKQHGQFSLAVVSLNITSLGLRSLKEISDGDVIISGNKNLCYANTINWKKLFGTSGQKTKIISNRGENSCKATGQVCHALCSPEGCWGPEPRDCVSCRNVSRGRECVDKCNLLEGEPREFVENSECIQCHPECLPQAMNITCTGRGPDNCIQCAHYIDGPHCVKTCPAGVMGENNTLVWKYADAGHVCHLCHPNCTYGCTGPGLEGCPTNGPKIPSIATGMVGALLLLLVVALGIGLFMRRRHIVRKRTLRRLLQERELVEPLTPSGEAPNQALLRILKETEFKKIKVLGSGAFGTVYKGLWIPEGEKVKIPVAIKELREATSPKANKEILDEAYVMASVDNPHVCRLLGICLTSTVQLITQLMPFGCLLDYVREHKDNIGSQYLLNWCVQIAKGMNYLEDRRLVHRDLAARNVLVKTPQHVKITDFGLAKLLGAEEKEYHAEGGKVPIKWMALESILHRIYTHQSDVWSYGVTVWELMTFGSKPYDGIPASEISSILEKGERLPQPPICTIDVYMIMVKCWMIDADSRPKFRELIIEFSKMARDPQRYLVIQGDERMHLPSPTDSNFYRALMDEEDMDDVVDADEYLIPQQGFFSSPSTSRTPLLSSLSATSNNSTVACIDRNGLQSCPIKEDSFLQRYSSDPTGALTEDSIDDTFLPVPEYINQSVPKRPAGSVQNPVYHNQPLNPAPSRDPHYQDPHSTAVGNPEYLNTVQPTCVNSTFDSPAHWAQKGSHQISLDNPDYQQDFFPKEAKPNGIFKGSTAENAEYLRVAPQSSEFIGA
Phosphatidylinositol 4,5-bisphosphate 3-kinase catalytic subunit alpha isoform, sequence (P42336 whole entry, canonical isoform): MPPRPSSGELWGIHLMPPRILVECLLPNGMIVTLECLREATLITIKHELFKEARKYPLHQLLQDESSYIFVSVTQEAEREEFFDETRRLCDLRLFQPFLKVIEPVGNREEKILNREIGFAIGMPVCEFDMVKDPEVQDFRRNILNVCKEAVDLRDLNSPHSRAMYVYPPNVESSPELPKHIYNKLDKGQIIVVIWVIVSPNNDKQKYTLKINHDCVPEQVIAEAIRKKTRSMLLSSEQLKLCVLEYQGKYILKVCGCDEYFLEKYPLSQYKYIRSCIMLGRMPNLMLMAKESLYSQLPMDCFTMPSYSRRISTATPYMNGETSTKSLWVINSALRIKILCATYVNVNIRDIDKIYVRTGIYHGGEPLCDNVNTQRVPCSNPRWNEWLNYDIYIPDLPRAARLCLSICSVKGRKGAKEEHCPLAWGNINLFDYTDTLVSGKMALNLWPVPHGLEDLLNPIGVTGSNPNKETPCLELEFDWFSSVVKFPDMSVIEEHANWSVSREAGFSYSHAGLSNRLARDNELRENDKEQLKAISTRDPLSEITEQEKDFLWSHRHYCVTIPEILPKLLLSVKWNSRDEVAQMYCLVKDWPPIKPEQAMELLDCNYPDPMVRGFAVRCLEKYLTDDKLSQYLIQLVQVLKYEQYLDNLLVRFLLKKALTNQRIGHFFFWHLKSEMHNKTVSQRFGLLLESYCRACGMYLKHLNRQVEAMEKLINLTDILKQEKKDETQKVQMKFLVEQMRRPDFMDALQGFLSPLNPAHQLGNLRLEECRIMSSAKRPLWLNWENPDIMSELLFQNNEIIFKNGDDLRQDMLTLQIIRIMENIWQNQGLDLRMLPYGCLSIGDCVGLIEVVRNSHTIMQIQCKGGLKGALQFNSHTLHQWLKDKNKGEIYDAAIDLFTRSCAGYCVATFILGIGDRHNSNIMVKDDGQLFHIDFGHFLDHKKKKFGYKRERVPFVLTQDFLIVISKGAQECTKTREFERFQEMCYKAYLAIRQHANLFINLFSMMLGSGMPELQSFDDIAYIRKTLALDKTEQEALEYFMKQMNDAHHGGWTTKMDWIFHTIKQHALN
Phosphatidylinositol 4,5-bisphosphate 3-kinase catalytic subunit gamma isoform, sequence (P48736 whole entry, canonical isoform): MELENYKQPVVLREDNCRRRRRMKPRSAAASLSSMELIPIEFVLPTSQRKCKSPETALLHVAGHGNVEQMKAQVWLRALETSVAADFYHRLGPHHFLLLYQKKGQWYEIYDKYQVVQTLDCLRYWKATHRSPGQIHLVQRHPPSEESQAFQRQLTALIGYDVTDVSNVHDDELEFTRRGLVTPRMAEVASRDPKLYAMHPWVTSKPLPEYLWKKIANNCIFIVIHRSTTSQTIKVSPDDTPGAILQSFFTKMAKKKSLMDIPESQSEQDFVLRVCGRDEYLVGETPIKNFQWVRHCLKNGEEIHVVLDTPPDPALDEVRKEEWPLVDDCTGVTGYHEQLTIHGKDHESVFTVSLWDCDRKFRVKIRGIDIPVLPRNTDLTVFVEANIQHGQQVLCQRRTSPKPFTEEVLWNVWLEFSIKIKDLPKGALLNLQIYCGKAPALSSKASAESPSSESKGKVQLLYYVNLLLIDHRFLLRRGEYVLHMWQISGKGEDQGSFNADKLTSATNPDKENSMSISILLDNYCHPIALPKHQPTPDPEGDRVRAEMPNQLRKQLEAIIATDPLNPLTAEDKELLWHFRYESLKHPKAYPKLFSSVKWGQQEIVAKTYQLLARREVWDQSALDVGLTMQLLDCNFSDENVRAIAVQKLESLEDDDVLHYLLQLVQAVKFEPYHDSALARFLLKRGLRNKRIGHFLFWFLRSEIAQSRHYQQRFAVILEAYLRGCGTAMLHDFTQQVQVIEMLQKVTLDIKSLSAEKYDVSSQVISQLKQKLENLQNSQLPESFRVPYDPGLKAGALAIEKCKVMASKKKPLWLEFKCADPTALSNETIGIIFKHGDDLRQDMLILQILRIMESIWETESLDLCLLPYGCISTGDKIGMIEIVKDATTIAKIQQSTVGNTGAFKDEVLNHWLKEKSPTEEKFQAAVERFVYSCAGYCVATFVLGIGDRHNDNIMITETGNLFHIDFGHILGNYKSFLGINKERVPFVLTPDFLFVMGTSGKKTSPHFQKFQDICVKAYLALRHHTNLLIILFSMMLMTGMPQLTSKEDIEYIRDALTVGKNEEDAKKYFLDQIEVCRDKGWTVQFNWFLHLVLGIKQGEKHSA
Phosphatidylinositol 4,5-bisphosphate 3-kinase catalytic subunit beta isoform, sequence (P42338 whole entry, canonical isoform): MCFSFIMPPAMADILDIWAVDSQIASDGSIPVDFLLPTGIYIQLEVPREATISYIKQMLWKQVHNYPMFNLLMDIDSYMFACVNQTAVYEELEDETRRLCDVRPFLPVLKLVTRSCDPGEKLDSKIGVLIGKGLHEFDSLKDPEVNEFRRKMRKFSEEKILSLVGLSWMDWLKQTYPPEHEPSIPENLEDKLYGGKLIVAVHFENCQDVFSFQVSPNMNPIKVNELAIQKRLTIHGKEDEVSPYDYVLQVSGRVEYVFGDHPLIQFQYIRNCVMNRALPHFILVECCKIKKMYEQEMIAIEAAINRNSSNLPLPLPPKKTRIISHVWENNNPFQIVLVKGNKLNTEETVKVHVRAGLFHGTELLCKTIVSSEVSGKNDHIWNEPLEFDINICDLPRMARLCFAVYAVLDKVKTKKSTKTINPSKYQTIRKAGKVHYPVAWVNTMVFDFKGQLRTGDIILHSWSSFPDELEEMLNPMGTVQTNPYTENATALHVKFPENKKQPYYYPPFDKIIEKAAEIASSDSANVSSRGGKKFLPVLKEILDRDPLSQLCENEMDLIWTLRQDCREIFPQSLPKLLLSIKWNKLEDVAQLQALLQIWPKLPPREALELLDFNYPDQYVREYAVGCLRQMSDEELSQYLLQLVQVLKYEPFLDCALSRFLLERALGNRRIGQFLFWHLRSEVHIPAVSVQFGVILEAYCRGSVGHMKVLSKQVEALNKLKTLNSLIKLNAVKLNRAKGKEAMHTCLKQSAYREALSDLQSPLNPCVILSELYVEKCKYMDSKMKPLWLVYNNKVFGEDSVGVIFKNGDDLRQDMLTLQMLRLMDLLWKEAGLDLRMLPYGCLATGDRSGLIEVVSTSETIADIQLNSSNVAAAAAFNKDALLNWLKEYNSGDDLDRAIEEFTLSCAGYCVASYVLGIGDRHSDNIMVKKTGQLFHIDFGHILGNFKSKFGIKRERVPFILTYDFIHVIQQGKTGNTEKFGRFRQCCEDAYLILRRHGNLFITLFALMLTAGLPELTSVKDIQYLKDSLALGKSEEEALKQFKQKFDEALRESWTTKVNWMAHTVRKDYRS

IC50 [2]: 90 nM
SMILES: Cc1cc(Oc2ccc(NC(=O)c3sc(-c4ccccn4)nc3C)cc2)c2nncn2n1
IC50 (MCF7 [1]): 1200 nM
IC50 (HeLa): 2730 nM
IC50 (A549): 1060 nM

IC50 (MDA-MB-231): 900 nM
IC50 (T47D): 430 nM
SMILES: O=C(NCC1CCOCC1)c1cc(C(F)(F)F)c(N2CCOCC2)nn1

SMILES: Oc1ccc(/C=N/Nc2nn3c(C(F)(F)F)nnc3c3ccccc23)cc1
IC50 (MCF7 [3]): 8040 nM
IC50 (HepG2): 11200 nM
IC50 (HCT-116 [4]): 5700 nM
IC50 (PC-3 [5]): 4250 nM

IC50 [6]: 650 nM
SMILES: COc1cccc(C2=NN(c3ccc(-c4ccccc4)nn3)C(c3ccc(F)c(OC)c3)C2)c1 (stereo not drawn)

SMILES: COC(=O)C(CC(C)(C)C)NC(=O)CNC(=O)COc1nn(-c2ccccc2)c(=O)c2ccccc12 (stereo not drawn)
IC50 (HCT-116 [7]): 1360 nM

SMILES: C[C@H]1CNC(=O)c2cnn3ccc(nc23)N[C@H](C)c2cc(F)ccc2O1 [REPOTRECTINIB]
IC50 [8]: 164 nM
IC50 [9]: 208 nM

IC50 (PC-3 [10]): 7830 nM
SMILES: O=C1CCC(c2ccc(NC(=S)Nc3ccccc3)cc2)=NN1c1ccccc1

SMILES: CCN(CC)CCNc1cc(-c2ccc(Br)cc2)nn2c(=O)c3ccccc3nc12
Activity (MGC-803): 55.9%

IC50 [11]: 4390 nM
IC50 [12]: 13600 nM
IC50 [13]: 3110 nM
IC50 [14]: 12500 nM
SMILES: CCOC(=O)c1nn(-c2ccccc2)c(=O)c2c(N)c(C#N)c(-c3cccs3)cc12
IC50 (SNB-75): 3.7 µg/mL (≈ 8.88 µM)

SMILES: CNC(=O)c1cc(Oc2ccc(NC(=O)Nc3ccc(Cl)c(C(F)(F)F)c3)cc2)ccn1 [SORAFENIB]
IC50 (PC-3 [10]): 11500 nM

IC50 (Aurora kinase B): 6 nM
SMILES: c1cc2[nH]ncc2cc1-c1cnc2ccc(OC[C@H]3CNCCO3)nn12
